Test results from ChEMBL document CHEMBL1201862, “PubChem BioAssay data set” (2004).
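Five compound concentrations were applied to cells in 96-well plates for 48 hours; endpoints were derived by simple linear interpolation of the resulting dose-response curve. Here, GI50 denotes the concentration required for 50% inhibition of growth.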 The source made the active and inactive calls. No stated cut-off is given here; in the data, active = GI50 up to about 1.1 µM and inactive = higher.

What was measured:
Test in all cases: NCI-60 cell line screen, 48 h
RXF 393 = test system: RXF 393
SR = test system: SR
NCI-H460 = test system: NCI-H460
NCI-H226 = test system: NCI-H226
HOP-62 = test system: HOP-62
M14 = test system: M14
MCF7 = test system: MCF7
TK-10 = test system: TK-10
MDA-MB-231 = test system: MDA-MB-231
CCRF-CEM = test system: CCRF-CEM
HCC 2998 = test system: HCC 2998
Hs-578T = test system: Hs-578T
HOP-92 = test system: HOP-92
T47D = test system: T47D
MDA-N = test system: MDA-N
HCT-15 = test system: HCT-15
SK-OV-3 = test system: SK-OV-3
HCT-116 = test system: HCT-116
DMS-114 = test system: DMS-114
SNB-78 = test system: SNB-78

Row | Structure (SMILES) | GI50 (RXF 393) | GI50 (SR) | GI50 (NCI-H460) | GI50 (NCI-H226) | GI50 (HOP-62) | GI50 (M14) | GI50 (MCF7) | GI50 (TK-10) | GI50 (MDA-MB-231) | GI50 (CCRF-CEM) | GI50 (HCC 2998) | GI50 (Hs-578T) | GI50 (HOP-92) | GI50 (T47D) | GI50 (MDA-N) | GI50 (HCT-15) [µM] | GI50 (SK-OV-3) | GI50 (HCT-116) | GI50 (DMS-114) | GI50 (SNB-78)
1 | C=CCn1c(=O)ccn(COCCO)c1=O | > 100 µM (inactive) | > 100 µM (inactive) | > 100 µM (inactive) | > 100 µM (inactive) | > 100 µM (inactive) | > 100 µM (inactive) | > 100 µM (inactive) | > 100 µM (inactive) | > 100 µM (inactive) | > 100 µM (inactive) | > 100 µM (inactive) | > 100 µM (inactive) | > 100 µM (inactive) | > 100 µM (inactive) | > 100 µM (inactive) | – | – | – | – | –
2 | CCOC(=O)c1cc2c([N+](=O)[O-])c(NC(C)=O)ccc2s1 | 20.2 µM (inactive) | – | > 100 µM (inactive) | 13.3 µM (inactive) | 90.2 µM (inactive) | > 100 µM (inactive) | 63 µM (inactive) | > 100 µM (inactive) | 24.1 µM (inactive) | 53 µM (inactive) | > 100 µM (inactive) | 37.8 µM (inactive) | 44.8 µM (inactive) | 15 µM (inactive) | 81.8 µM (inactive) | 86.9 | > 100 µM (inactive) | 87.9 µM (inactive) | – | –
3 | CN(O)C(=O)CCCC(=O)NCC(C)(C)CNC(=O)CCCC(=O)N(C)O | > 100 µM (inactive) | > 100 µM (inactive) | > 100 µM (inactive) | > 100 µM (inactive) | > 100 µM (inactive) | > 100 µM (inactive) | > 100 µM (inactive) | > 100 µM (inactive) | > 100 µM (inactive) | > 100 µM (inactive) | > 100 µM (inactive) | > 100 µM (inactive) | > 100 µM (inactive) | > 100 µM (inactive) | > 100 µM (inactive) | > 100 | > 100 µM (inactive) | – | – | –
4 | CSCCC(N)P(C)(=O)O (stereo not given) | > 100 µM (inactive) | > 100 µM (inactive) | > 100 µM (inactive) | > 100 µM (inactive) | > 100 µM (inactive) | > 100 µM (inactive) | > 100 µM (inactive) | > 100 µM (inactive) | > 100 µM (inactive) | > 100 µM (inactive) | > 100 µM (inactive) | > 100 µM (inactive) | > 100 µM (inactive) | > 100 µM (inactive) | > 100 µM (inactive) | > 100 | > 100 µM (inactive) | > 100 µM (inactive) | – | –
5 | c1cc2nnc1SCCCSc1ccc(nn1)SCCCS2 | 12.9 µM (inactive) | > 26 µM (inactive) | – | 24.7 µM (inactive) | 16 µM (inactive) | > 25.9 µM (inactive) | 32.4 µM (inactive) | 35.5 µM (inactive) | 30 µM (inactive) | > 21.2 µM (inactive) | > 37.8 µM (inactive) | 26.5 µM (inactive) | 38.4 µM (inactive) | 31.3 µM (inactive) | > 29.9 µM (inactive) | – | 24.7 µM (inactive) | 17.6 µM (inactive) | – | –
6 | CC1CC(NC2CCCCC2)=Nc2ccccc2N1Cc1ccccc1 (stereo not given) | 2.36 µM (inactive) | 2.64 µM (inactive) | 3.37 µM (inactive) | 12.7 µM (inactive) | 7.03 µM (inactive) | 2.04 µM (inactive) | 3.66 µM (inactive) | 12.3 µM (inactive) | 4.51 µM (inactive) | 4.13 µM (inactive) | 2.31 µM (inactive) | 3.95 µM (inactive) | – | 4.18 µM (inactive) | 3.69 µM (inactive) | 5.33 | 11.2 µM (inactive) | 4.71 µM (inactive) | – | –
7 | O=C1/C(=C/c2ccccc2)NC(=S)N1CN1CCOCC1 | – | > 100 µM (inactive) | – | > 100 µM (inactive) | > 100 µM (inactive) | > 100 µM (inactive) | > 100 µM (inactive) | > 100 µM (inactive) | > 100 µM (inactive) | > 100 µM (inactive) | – | > 100 µM (inactive) | > 100 µM (inactive) | – | > 100 µM (inactive) | > 100 | > 100 µM (inactive) | > 100 µM (inactive) | – | –
8 | c1cc(CN2CCNCCNCCNCC2)cc(CN2CCNCCNCCNCC2)c1 | – | > 100 µM (inactive) | > 100 µM (inactive) | > 100 µM (inactive) | > 100 µM (inactive) | > 100 µM (inactive) | > 100 µM (inactive) | > 100 µM (inactive) | > 100 µM (inactive) | – | > 100 µM (inactive) | > 100 µM (inactive) | – | > 100 µM (inactive) | > 100 µM (inactive) | > 10 | > 100 µM (inactive) | > 100 µM (inactive) | – | –
9 | CC(Oc1ccccc1Cl)C(=O)NN1C(=O)CSC1c1ccc(Cl)cc1 (stereo not given) | 17.3 µM (inactive) | < 0.01 µM (active) | 25.4 µM (inactive) | 18.2 µM (inactive) | 17.4 µM (inactive) | 18.4 µM (inactive) | 18.1 µM (inactive) | 25.8 µM (inactive) | 17.3 µM (inactive) | 0.17 µM (active) | 18.4 µM (inactive) | 20.4 µM (inactive) | 20 µM (inactive) | 20.1 µM (inactive) | 15.2 µM (inactive) | 19.5 | 18.8 µM (inactive) | 14.5 µM (inactive) | – | –
10 | O=CN1CCC23CC(O)CCC2C1Cc1cc(Oc2nnnn2-c2ccccc2)cc(O)c13 (stereo not given) | > 100 µM (inactive) | 55 µM (inactive) | 85.9 µM (inactive) | > 100 µM (inactive) | > 100 µM (inactive) | > 100 µM (inactive) | 54 µM (inactive) | > 100 µM (inactive) | > 100 µM (inactive) | 65.5 µM (inactive) | > 100 µM (inactive) | > 100 µM (inactive) | 44.7 µM (inactive) | 79.1 µM (inactive) | > 100 µM (inactive) | 80 | > 100 µM (inactive) | > 100 µM (inactive) | – | –
11 | COC(=O)C(=O)C(C(C)=O)C(=O)C(=O)Nc1ccc(C)cc1C (stereo not given) | > 100 µM (inactive) | > 100 µM (inactive) | > 100 µM (inactive) | > 100 µM (inactive) | > 100 µM (inactive) | > 100 µM (inactive) | – | > 100 µM (inactive) | – | > 100 µM (inactive) | > 100 µM (inactive) | – | > 100 µM (inactive) | – | – | > 100 | > 100 µM (inactive) | > 100 µM (inactive) | > 100 µM (inactive) | –
12 | CC(C)(C)[Si](OC1CCOC1=O)(c1ccccc1)c1ccccc1 (stereo not given) | – | > 10 µM (inactive) | 18.7 µM (inactive) | – | – | 18 µM (inactive) | – | 22.5 µM (inactive) | – | 25.6 µM (inactive) | 18.9 µM (inactive) | – | > 10 µM (inactive) | – | – | 18.5 | 33.9 µM (inactive) | 13.6 µM (inactive) | – | 32.2 µM (inactive)
13 | Cc1nc2cccc(F)c2c(=O)n1C1CCCCNC1=O (stereo not given) | > 10 µM (inactive) | > 10 µM (inactive) | > 10 µM (inactive) | > 10 µM (inactive) | > 10 µM (inactive) | > 10 µM (inactive) | > 10 µM (inactive) | > 10 µM (inactive) | > 10 µM (inactive) | > 10 µM (inactive) | > 10 µM (inactive) | > 10 µM (inactive) | > 10 µM (inactive) | > 10 µM (inactive) | > 10 µM (inactive) | > 10 | > 10 µM (inactive) | > 10 µM (inactive) | – | –
14 | CCCCCCCCCCCCCCCCCC(=O)OCC(COC(=O)CCCN)OC(=O)CCCN (stereo not given) | 15.1 µM (inactive) | 23.6 µM (inactive) | 14.9 µM (inactive) | 20.6 µM (inactive) | 17.4 µM (inactive) | 16.9 µM (inactive) | 24.4 µM (inactive) | 20.8 µM (inactive) | 15 µM (inactive) | 28.8 µM (inactive) | 18.5 µM (inactive) | 19.2 µM (inactive) | 13.4 µM (inactive) | 17.4 µM (inactive) | 19.9 µM (inactive) | 23.7 | 18.3 µM (inactive) | 19.5 µM (inactive) | – | –
15 | NC(=S)N/N=C1\CC(c2ccccc2)Nc2ccccc21 (stereo not given) | – | – | 32.7 µM (inactive) | 39 µM (inactive) | – | 42.1 µM (inactive) | – | 71.8 µM (inactive) | – | 29.6 µM (inactive) | – | – | 16.4 µM (inactive) | – | – | 28.6 | 39.1 µM (inactive) | – | 23.4 µM (inactive) | 68.9 µM (inactive)
16 | Cc1cc(O)c(C(c2cccnc2)c2c(O)cc(C)[nH]c2=O)c(=O)[nH]1 | > 100 µM (inactive) | > 100 µM (inactive) | > 100 µM (inactive) | – | > 100 µM (inactive) | > 100 µM (inactive) | > 100 µM (inactive) | > 100 µM (inactive) | > 100 µM (inactive) | > 100 µM (inactive) | – | > 100 µM (inactive) | – | > 100 µM (inactive) | > 100 µM (inactive) | > 100 | > 100 µM (inactive) | > 100 µM (inactive) | – | –
17 | CCOP(=Nc1ccc(N(C)C)cc1)(OCC)OCC | > 100 µM (inactive) | – | > 100 µM (inactive) | – | > 100 µM (inactive) | > 100 µM (inactive) | > 100 µM (inactive) | > 100 µM (inactive) | > 100 µM (inactive) | – | > 100 µM (inactive) | > 100 µM (inactive) | > 100 µM (inactive) | – | > 100 µM (inactive) | > 100 | > 100 µM (inactive) | > 100 µM (inactive) | – | –
18 | Cc1cccc(/C=C2\CCCc3ccccc3C2=O)c1 | – | 15 µM (inactive) | 16.8 µM (inactive) | 20.6 µM (inactive) | 28.8 µM (inactive) | 17.9 µM (inactive) | 16.9 µM (inactive) | 27.4 µM (inactive) | 18.5 µM (inactive) | 13.7 µM (inactive) | – | 15.8 µM (inactive) | 15 µM (inactive) | – | 19.8 µM (inactive) | 18.7 | 62.4 µM (inactive) | 15 µM (inactive) | – | –
